Patent publication US20130078613A1, “Selection of HCV Treatment” (ROCHE MOLECULAR SYSTEMS, priority 2011, published 2013)
Marks after values point to notes of the source that are not given here.

How the values were obtained:
HCV [1] = details: RBV monotherapy; cited from earlier work
CHC genotype 1 or 4 [2] = test: Clinical Study NV20536; assay type: in vivo, human; details: for SVR-12 and SVR-24: across RVR-guided arms; for relapse / SVR-12 (%) / SVR-12 n/N / SVR-24 (%) / SVR-24 n/N: sRVR patients
Source text: (§1) The term “response” to treatment is a desirable response to the administration of an agent. Virological endpoints included “early virological response” (EVR), defined as ≧2-log drop in serum HCV RNA from baseline to week 12 (by Cobas Amplicor HCV Monitor Test, v2.0, limit of quantitation 600 IU/mL), complete EVR (cEVR) defined as undetectable HCV RNA (<15 IU/mL) in serum (by Cobas Amplicor HCV Test v2.0, […]) or and “sustained virological response” (SVR), defined as undetectable HCV RNA (<15 IU/mL) at the end of either a 12-week (SVR-12) or a 24-week (SVR-24) untreated follow-up period. The term “sustained rapid virological response” (sRVR) refers to undetectable HCV RNA (<15 IU/mL) during the period of 4 weeks and 22 weeks of treatment. The term “extended rapid virological response” (eRVR) refers to undetectable HCV RNA (<15 IU/mL) during the period of between 4 weeks and 20 weeks of treatment.
Study NV20536 was designed to determine the optimal dose (500 or 1000 mg twice daily [BID]) and duration (8 or 12 weeks) of RO5024048 in combination with PEG-IFN/RBV in treatment-naïve CHC genotype 1 or 4 patients. Patients enrolled in Study NV20536 were randomized to one of five treatment groups (FIG. 1A) (approximately 80 patients per treatment group). In the response-guided treatment groups, patients with a sustained RVR (sRVR, defined as undetectable HCV RNA from week 4-22) stopped all therapy at Week 24.
Patients received double blinded experimental treatment with RO5024048 500 mg BID and standard of care treatment (SOC, Pegasys 180 μg sc qw+Copegus 1000 mg (<75 kg) or 1200 mg (≧75 kg) po qd) or RO5024048 1000 mg BID and SOC respectively, for 12 weeks followed by SOC for 12 weeks. Patients who achieve an RVR, defined as undetectable HCV RNA at week 4, and remain undetectable through week 22 stopped all treatment at week 24. Non-RVR patients received SOC for an additional 24 weeks for a total treatment duration of 48 weeks.
Patients received double blinded experimental treatment with RO5024048 1000 mg BID and SOC for 8 weeks followed by SOC for 16 weeks. Patients who achieve an RVR defined as undetectable HCV RNA at week 4, and remain undetectable through week 22 stopped all treatment at week 24. Non-RVR patients received SOC for an additional 24 weeks for a total treatment duration of 48 weeks. […]
(§2) The Roche Clinical Repository (RCR) is an optional program that requires separate consent; data are anonymized to assure patient privacy. The RCR DNA samples were used to determine IL28B status using TaqMan Real-Time PCR for rs12979860. Efficacy endpoints were summarized for the two subgroups, CC vs. non-CC (CT and TT).

HCV genotypes (1-4) = details: four main genotypes (1-4); cited from earlier work
CHC genotype 1 or 4 [3] = test: Clinical Study NV22621; assay type: in vivo, human
Source text: as §1
Study NV22621 was designed to determine the safety and efficacy of longer treatment duration (24 weeks) of 1000 mg BID RO5024048 in combination with PEG-IFN/RBV in treatment naïve CHC genotype 1 or 4 patients. Patients enrolled in Study NV22621 were randomized to one of two treatment groups (FIG. 1B) (approximately 80 patients per treatment group). In the response-guided treatment group, patients with a sustained RVR (sRVR, defined as undetectable HCV RNA from week 4-22) stopped all therapy at Week 24.
as §2, with “PCR.” for “PCR for rs12979860.”

HCV [4] = details: combination with PEG-IFN and RBV; cited from earlier work
NS5B (S282T) = target: T1, NS5B (S282T) (Hepatitis C virus genotype 1b, UniProt Q9WMX2, S2701T); details: sequential passage of replicon cells; cited from earlier work
T1 construct: Amino acid substitution in NS5B (S282T)

[5] = target: NS5B-directed HCV polymerase (Hepatitis C virus genotype 1b, UniProt Q9WMX2); details: ref [7]; cited from earlier work
[6] = extensively converted to RO4995855; cited from earlier work
[7] = Group A, 500 mg 12 wks + P/R RVR-guided, IL28B CC
[8] = Group A, 500 mg 12 wks + P/R RVR-guided, IL28B NonCC
[9] = Group A, 500 mg 12 wks + P/R RVR-guided, Total
[10] = Group B, 1000 mg 8 wks + P/R RVR-guided, IL28B CC
[11] = Group B, 1000 mg 8 wks + P/R RVR-guided, IL28B NonCC
[12] = Group B, 1000 mg 8 wks + P/R RVR-guided, Total
[13] = Group C, 1000 mg 12 wks + P/R RVR-guided, IL28B CC
[14] = Group C, 1000 mg 12 wks + P/R RVR-guided, IL28B NonCC
[15] = Group C, 1000 mg 12 wks + P/R RVR-guided, Total
[16] = Group A, 1000 mg 24 wks + P/R RVR-guided, Total, sRVR patients

T1 sequence (Q9WMX2 2420-3010 S2701T): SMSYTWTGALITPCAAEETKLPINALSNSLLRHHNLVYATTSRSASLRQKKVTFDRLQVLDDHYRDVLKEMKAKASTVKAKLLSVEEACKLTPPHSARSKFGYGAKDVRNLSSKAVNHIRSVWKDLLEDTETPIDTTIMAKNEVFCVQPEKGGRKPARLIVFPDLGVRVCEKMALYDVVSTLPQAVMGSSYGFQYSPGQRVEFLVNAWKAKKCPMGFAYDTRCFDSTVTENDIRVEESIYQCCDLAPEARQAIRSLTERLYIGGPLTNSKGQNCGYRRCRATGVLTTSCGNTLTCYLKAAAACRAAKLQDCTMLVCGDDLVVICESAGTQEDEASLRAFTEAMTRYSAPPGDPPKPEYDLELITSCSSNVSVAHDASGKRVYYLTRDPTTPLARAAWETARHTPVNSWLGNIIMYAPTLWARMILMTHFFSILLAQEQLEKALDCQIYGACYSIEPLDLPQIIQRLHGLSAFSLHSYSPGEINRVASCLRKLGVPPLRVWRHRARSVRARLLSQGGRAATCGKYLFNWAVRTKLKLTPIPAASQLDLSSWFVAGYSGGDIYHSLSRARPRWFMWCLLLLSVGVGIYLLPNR
Sequence of NS5B-directed HCV polymerase (Q9WMX2 2420-3010): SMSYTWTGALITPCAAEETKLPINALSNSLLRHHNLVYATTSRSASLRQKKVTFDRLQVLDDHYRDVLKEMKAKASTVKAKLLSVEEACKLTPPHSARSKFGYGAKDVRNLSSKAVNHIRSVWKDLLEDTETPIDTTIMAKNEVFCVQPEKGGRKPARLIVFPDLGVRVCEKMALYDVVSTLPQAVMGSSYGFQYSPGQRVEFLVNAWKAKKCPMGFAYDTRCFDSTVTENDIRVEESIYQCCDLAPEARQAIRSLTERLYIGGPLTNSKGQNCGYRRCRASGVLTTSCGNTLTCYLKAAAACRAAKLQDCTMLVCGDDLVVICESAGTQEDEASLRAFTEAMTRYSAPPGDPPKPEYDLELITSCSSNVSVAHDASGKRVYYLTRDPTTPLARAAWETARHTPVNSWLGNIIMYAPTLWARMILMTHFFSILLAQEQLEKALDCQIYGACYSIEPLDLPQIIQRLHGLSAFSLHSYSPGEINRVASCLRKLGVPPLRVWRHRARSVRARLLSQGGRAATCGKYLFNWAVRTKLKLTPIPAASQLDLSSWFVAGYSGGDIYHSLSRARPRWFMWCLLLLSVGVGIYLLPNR

NC(=O)c1ncn([C@@H]2O[C@H](CO)[C@@H](O)[C@H]2O)n1 [ribavirin, 1-((2R,3R,4S,5R)-3,4-Dihydroxy-5-hydroxymethyl-tetrahydro-furan-2-yl)-1H-[1,2,4]triazole-3-carboxylic acid amide]
effect on the replication of HCV (HCV [1]): little or no effect

CC(C)C(=O)OC[C@H]1O[C@@H](n2ccc(N)nc2=O)[C@](C)(F)[C@@H]1OC(=O)C(C)C [RO5024048, mericitabine]
RVR (undetectable HCV RNA at week 4) (CHC genotype 1 or 4 [2]; 500-mg 12-week RVR-guided group, with PEG-IFN/RBV, overall population): 38% | SVR-12 and SVR-24 (CHC genotype 1 or 4 [2]; CC patients who achieve sRVR and stop all treatment after 24 weeks): 67-90% | relapse (CHC genotype 1 or 4 [2]; CC, arm A, 12 weeks followup after EOT): 2/8 | relapse (CHC genotype 1 or 4 [2]; CC, arm A, 24 weeks followup after EOT): 2/7 | relapse (CHC genotype 1 or 4 [2]; CC, arm C, 12 weeks followup after EOT): 4/12 | relapse (CHC genotype 1 or 4 [2]; CC, arm C, 24 weeks followup after EOT): 4/12 | SVR-12 (%) (CHC genotype 1 or 4 [2]; [7]): (75.0%) | SVR-12 n/N (CHC genotype 1 or 4 [2]; [7]): 6/8 | SVR-24 (%) (CHC genotype 1 or 4 [2]; [7]): (85.7%) | SVR-24 n/N (CHC genotype 1 or 4 [2]; [7]): 6/7 | SVR-12 (%) (CHC genotype 1 or 4 [2]; [8]): (66.7%) | SVR-12 n/N (CHC genotype 1 or 4 [2]; [8]): 6/9 | SVR-24 (%) (CHC genotype 1 or 4 [2]; [8]): (55.6%) | SVR-24 n/N (CHC genotype 1 or 4 [2]; [8]): 5/9 | SVR-12 (%) (CHC genotype 1 or 4 [2]; [9]): (70.6%)* | SVR-12 n/N (CHC genotype 1 or 4 [2]; [9]): 12/17 | SVR-24 (%) (CHC genotype 1 or 4 [2]; [9]): (68.8%)* | SVR-24 n/N (CHC genotype 1 or 4 [2]; [9]): 11/16 | sRVR (%) (CHC genotype 1 or 4 [2]; Group A, RO5024048 500 mg 12 wks + P/R 24/48 wks RVR-guided, N = 49, Total): (36.7%) | SVR-12 (%) (CHC genotype 1 or 4 [2]; [10]): (90.0%) | SVR-12 n/N (CHC genotype 1 or 4 [2]; [10]): 9/10 | SVR-24 (%) (CHC genotype 1 or 4 [2]; [10]): (80.0%) | SVR-24 n/N (CHC genotype 1 or 4 [2]; [10]): 8/10 | SVR-12 (%) (CHC genotype 1 or 4 [2]; [11]): (38.5%) | SVR-12 n/N (CHC genotype 1 or 4 [2]; [11]): 5/13 | SVR-24 (%) (CHC genotype 1 or 4 [2]; [11]): (25.0%) | SVR-24 n/N (CHC genotype 1 or 4 [2]; [11]): 3/12 | SVR-12 (%) (CHC genotype 1 or 4 [2]; [12]): (60.9%) | SVR-12 n/N (CHC genotype 1 or 4 [2]; [12]): 14/23 | SVR-24 (%) (CHC genotype 1 or 4 [2]; [12]): (50.0%)* | SVR-24 n/N (CHC genotype 1 or 4 [2]; [12]): 11/22 | sRVR (%) (CHC genotype 1 or 4 [2]; Group B, RO5024048 1000 mg 8 wks + P/R 24/48 wks RVR-guided, N = 49, Total): (46.9%) | SVR-12 n/N (CHC genotype 1 or 4 [2]; [13]): 8/12 | SVR-24 (%) (CHC genotype 1 or 4 [2]; [13]): (66.7%) | SVR-24 n/N (CHC genotype 1 or 4 [2]; [13]): 8/12 | SVR-12 n/N (CHC genotype 1 or 4 [2]; [14]): 5/18 | SVR-24 (%) (CHC genotype 1 or 4 [2]; [14]): (22.2%) | SVR-24 n/N (CHC genotype 1 or 4 [2]; [14]): 4/18 | SVR-12 (%) (CHC genotype 1 or 4 [2]; [15]): (43.3%) | SVR-12 n/N (CHC genotype 1 or 4 [2]; [15]): 13/30 | SVR-24 (%) (CHC genotype 1 or 4 [2]; [15]): (40.0%) | SVR-24 n/N (CHC genotype 1 or 4 [2]; [15]): 12/30 | sRVR (%) (CHC genotype 1 or 4 [2]; Group C, RO5024048 1000 mg 12 wks + P/R 24/48 wks RVR-guided, N = 46, Total): (65.2%) | SVR-12 and SVR-24 (CHC genotype 1 or 4 [2]; non-CC patients who achieve sRVR and stop all treatment after 24 weeks): 22-67% | relapse (CHC genotype 1 or 4 [2]; non-CC, Arm A, 12 weeks followup after EOT): 3/9 | relapse (CHC genotype 1 or 4 [2]; non-CC, Arm A, 24 weeks followup after EOT): 4/9 | relapse (CHC genotype 1 or 4 [2]; non-CC, Arm C, 12 weeks followup after EOT): 13/18 | relapse (CHC genotype 1 or 4 [2]; non-CC, Arm C, 24 weeks followup after EOT): 14/18 | in vitro activity across genotypes (HCV genotypes (1-4)): Activity has been demonstrated | cEVR (CHC genotype 1 or 4 [3]; 1000-mg group, RCR-consented population): 94% | SVR-12 n/N (CHC genotype 1 or 4 [3]; Group A, 1000 mg 24 wks + P/R RVR-guided, IL28B CC, sRVR patients): 12/15 | SVR-12 n/N (CHC genotype 1 or 4 [3]; Group A, 1000 mg 24 wks + P/R RVR-guided, IL28B NonCC, sRVR patients): 13/18 | SVR-12 (%) (CHC genotype 1 or 4 [3]; [16]): (75.0%)* | SVR-12 n/N (CHC genotype 1 or 4 [3]; [16]): 24/32 | sRVR (%) (CHC genotype 1 or 4 [3]; Group A, RO5024048 1000 mg 24 wks + P/R 24/48 wks RVR-guided, N = 52, Total): (63.5%) | RVR (CHC genotype 1 or 4 [3]; RVR-guided 1000-mg group (24 wks with PEG-IFN/RBV), overall population): 63% | cEVR (CHC genotype 1 or 4 [3]; RVR-guided 1000-mg group, overall ITT population): 89% | week-24 virological response (CHC genotype 1 or 4 [3]; RVR-guided 1000-mg group, overall population): 91% | maximal rate of undetectable viral load (CHC genotype 1 or 4 [3]; non-CC genotype, 24 weeks of triple therapy, at weeks 20 to 24 (data not shown)): > 90% | antiviral effect of combination (HCV [4]): additive antiviral effect | resistance conferred by NS5B S282T substitution (NS5B (S282T)): low level resistance | IC50 [5]: 610 ± 40 nM | absorption after oral administration [6]: rapidly absorbed
